Assay results: ChEMBL document CHEMBL5113492, “Design, synthesis, and biological evalution of bifunctional inhibitors against Hsp90-HDAC6 interplay” (Eur J Med Chem, 2022)
Activity calls are given as the source filed them. No cut-off for these calls is given here.

Legend:
Mus musculus [1] = experiment: In vivo inhibition of HDAC1 in human NCI-H1975 cells xenografted with NSG mouse assessed as increase in acetylation of Histone H3 at 50 mg/kg,ip measured after 6 weeks by immunohistochemistry analysis; format: functional, organism-based
[2] = molecular target: T1, Heat shock protein HSP90 (Homo sapiens) (UniProt P07900+P08238); experiment: Inhibition of HSP90 in human NCI-H1975 cells assessed as upregulation of HSP70 expression at 0.05 to 2 uM incubated for 24 hrs by western blot analysis; format: cell-based; conditions: dose 0.05-2 µM, DDE = dose-dependent effect
[3] = molecular target: T1, Heat shock protein HSP90 (Homo sapiens); experiment: Inhibition of HSP90 in human NCI-H1975 cells assessed as upregulation of HSP70 expression at 2 uM incubated for 24 hrs by western blot analysis; format: cell-based
[4] = molecular target: T1, Heat shock protein HSP90 (Homo sapiens); experiment: Inhibition of HSP90 in human NCI-H1975 cells assessed as downregulation of Her2 expression at 2 uM incubated for 24 hrs by western blot analysis; format: cell-based
[5] = molecular target: Histone deacetylase 1 (Homo sapiens) (UniProt Q13547); experiment: Inhibition of HDAC1 in human NCI-H1975 cells assessed as increase in acetylation of Histone H3 at 2 uM incubated for 24 hrs by western blot analysis; format: cell-based
Chain of Histone deacetylase 1 (Homo sapiens) (Q13547 whole entry): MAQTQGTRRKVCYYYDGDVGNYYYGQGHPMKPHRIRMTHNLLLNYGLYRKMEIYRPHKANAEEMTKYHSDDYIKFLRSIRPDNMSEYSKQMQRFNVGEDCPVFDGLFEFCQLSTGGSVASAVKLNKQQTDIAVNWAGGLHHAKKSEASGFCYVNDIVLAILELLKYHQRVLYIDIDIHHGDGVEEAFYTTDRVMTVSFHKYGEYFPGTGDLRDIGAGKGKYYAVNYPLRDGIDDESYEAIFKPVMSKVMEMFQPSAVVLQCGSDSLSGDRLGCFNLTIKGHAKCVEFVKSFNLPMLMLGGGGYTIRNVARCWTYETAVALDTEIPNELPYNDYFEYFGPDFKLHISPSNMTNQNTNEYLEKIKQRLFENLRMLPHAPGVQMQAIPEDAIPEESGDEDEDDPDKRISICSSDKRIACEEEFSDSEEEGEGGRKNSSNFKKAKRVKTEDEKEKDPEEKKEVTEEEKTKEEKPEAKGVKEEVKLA

[6] = molecular target: T1, Heat shock protein HSP90 (Homo sapiens); experiment: Inhibition of HSP90 in human NCI-H1975 cells assessed as downregulation of Her2 expression at 0.05 to 2 uM incubated for 24 hrs by western blot analysis; format: cell-based; conditions: dose 0.05-2 µM, DDE = dose-dependent effect
[7] = molecular target: T2, Protein deacetylase HDAC6 (Homo sapiens) (UniProt Q9UBN7); experiment: Inhibition of HDAC6 in human NCI-H1975 cells assessed as increase in acetylation of alpha tubulin at 1 uM incubated for 24 hrs by DAPI staining based immunofluorescence microscopy; format: cell-based
T2 sequence (whole entry): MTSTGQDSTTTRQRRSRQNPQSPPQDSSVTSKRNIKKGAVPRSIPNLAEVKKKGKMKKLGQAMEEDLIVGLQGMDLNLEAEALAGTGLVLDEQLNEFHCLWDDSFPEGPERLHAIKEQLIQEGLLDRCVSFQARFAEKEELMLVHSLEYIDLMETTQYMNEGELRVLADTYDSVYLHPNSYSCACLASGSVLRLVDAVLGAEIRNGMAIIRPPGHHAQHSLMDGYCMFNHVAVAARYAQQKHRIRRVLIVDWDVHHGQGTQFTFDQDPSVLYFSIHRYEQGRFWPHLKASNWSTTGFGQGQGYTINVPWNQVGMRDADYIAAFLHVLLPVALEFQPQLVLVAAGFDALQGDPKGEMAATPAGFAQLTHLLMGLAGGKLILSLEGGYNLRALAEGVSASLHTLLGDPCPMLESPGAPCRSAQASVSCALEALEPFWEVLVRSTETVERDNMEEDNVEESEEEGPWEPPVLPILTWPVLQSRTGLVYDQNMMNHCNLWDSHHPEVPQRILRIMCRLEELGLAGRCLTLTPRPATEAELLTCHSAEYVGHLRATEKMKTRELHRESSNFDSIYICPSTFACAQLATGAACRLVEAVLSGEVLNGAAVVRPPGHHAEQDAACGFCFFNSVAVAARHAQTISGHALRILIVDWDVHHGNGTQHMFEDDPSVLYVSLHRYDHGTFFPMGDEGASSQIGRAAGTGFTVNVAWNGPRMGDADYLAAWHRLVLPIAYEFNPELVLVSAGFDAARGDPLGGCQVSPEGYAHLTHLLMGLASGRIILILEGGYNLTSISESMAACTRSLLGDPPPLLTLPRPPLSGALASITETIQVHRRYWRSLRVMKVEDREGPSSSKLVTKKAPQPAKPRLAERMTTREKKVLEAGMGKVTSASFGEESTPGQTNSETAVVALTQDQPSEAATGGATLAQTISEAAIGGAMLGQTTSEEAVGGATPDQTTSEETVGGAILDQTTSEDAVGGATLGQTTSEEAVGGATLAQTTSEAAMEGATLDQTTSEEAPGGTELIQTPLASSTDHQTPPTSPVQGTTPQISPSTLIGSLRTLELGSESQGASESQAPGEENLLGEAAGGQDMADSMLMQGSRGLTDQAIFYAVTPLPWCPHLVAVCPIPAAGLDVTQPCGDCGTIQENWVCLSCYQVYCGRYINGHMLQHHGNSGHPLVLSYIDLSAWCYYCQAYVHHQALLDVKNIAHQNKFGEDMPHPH

NCI-H1975 [8] = experiment: Induction of apoptosis in human NCI-H1975 cells assessed as early apoptotic cells at 2 uM incubated for 24 hrs by Annexin-V/propidium iodide staining based flow cytometry analysis; format: functional
NCI-H1975 [9] = experiment: Induction of apoptosis in human NCI-H1975 cells assessed as caspase-8 cleavage at 0.05 to 2 uM incubated for 24 hrs by western blot analysis; format: functional, cell-based; conditions: dose 0.05-2 µM, DDE = dose-dependent effect
[10] = molecular target: T2, Protein deacetylase HDAC6 (Homo sapiens); experiment: Inhibition of HDAC6 in human NCI-H1975 cells assessed as increase in acetylation of HSP90 at 2 uM incubated for 24 hrs by western blot analysis; format: cell-based
[11] = molecular target: T1, Heat shock protein HSP90 (Homo sapiens); experiment: Inhibition of HSP90 in human NCI-H1975 cells assessed as downregulation of EGFR expression at 2 uM incubated for 24 hrs by western blot analysis; format: cell-based
[12] = Toxicity in NSG mouse xenografted with human NCI-H1975 cells assessed as change in number of retina at 25 mg/kg,ip measured after 6 weeks by H and E staining based assay; format: organism-based; conditions: in vivo, 1008 h
[13] = Toxicity in NSG mouse xenografted with human NCI-H1975 cells assessed as change in structure of retina at 25 mg/kg,ip measured after 6 weeks by H and E staining based assay; format: organism-based; conditions: in vivo, 1008 h
NCI-H1975 [14] = experiment: Antitumor activity against NSG mouse xenografted with human NCI-H1975 cells assessed as reduction on tumor growth at 50 mg/kg,ip measured after 2 weeks; format: functional, organism-based
Mus musculus [15] = experiment: In vivo inhibition of HSP90 in human NCI-H1975 cells xenografted with NSG mouse assessed as downregulation of EGFR expression at 50 mg/kg,ip measured after 6 weeks by immunohistochemistry analysis; format: functional, organism-based
NCI-H1975 [16] = experiment: Induction of apoptosis in human NCI-H1975 cells assessed as caspase-3 cleavage at 0.05 to 2 uM incubated for 24 hrs by western blot analysis; format: functional, cell-based; conditions: dose 0.05-2 µM, DDE = dose-dependent effect
[17] = Toxicity in NSG mouse xenografted with human NCI-H1975 cells assessed as abnormal behavior at 25 mg/kg,ip measured after 6 weeks; format: organism-based; conditions: in vivo, 1008 h
NCI-H1975 [18] = experiment: Antitumor activity against NSG mouse xenografted with human NCI-H1975 cells assessed as reduction on tumor growth at 50 mg/kg,ip measured after 6 weeks; format: functional, organism-based
NCI-H1975 [19] = experiment: Induction of apoptosis in human NCI-H1975 cells assessed as PARP cleavage at 0.05 to 2 uM incubated for 24 hrs by western blot analysis; format: functional, cell-based; conditions: dose 0.05-2 µM, DDE = dose-dependent effect
Mus musculus [20] = experiment: In vivo inhibition of HDAC1 in human NCI-H1975 cells xenografted with NSG mouse assessed as increase in acetylation of Histone H3 at 25 mg/kg,ip measured after 6 weeks by immunohistochemistry analysis; format: functional, organism-based
[21] = molecular target: T1, Heat shock protein HSP90 (Homo sapiens); experiment: Inhibition of HSP90 in human NCI-H1975 cells assessed as downregulation of CDK-4 expression at 2 uM incubated for 24 hrs by western blot analysis; format: cell-based

CC(C)c1cc(C(=O)N(C)Cc2ccc(C(=O)NO)cc2)c(O)cc1O
inhibition (Mus musculus [1]): Active | inhibition [2]: Dde | inhibition [3]: Active | inhibition [4]: Active | inhibition [5]: Active | inhibition [6]: Dde | inhibition [7]: Active | Activity (NCI-H1975 [8]): 16.78% | Activity (NCI-H1975 [9]): Dde | inhibition [10]: Active | inhibition [11]: Active | Activity [12]: Non-Toxic | Activity [13]: Non-Toxic | Activity (NCI-H1975 [14]): Active | inhibition (Mus musculus [15]): Active | Activity (NCI-H1975 [16]): Dde | Activity [17]: Non-Toxic | Activity (NCI-H1975 [18]): Active | Activity (NCI-H1975 [19]): Dde | inhibition (Mus musculus [20]): Active | inhibition [21]: Active
